In patent US20060014730A1, “Ansamycin formulations and methods for producing and using same” (Conforma Therapeutics Corporation, priority 2002, published 2006):
Where two headings read alike, the source gives them in different places.

How the values were obtained:
[1] = test system: adult patients with advanced solid tumors; conditions: daily 1-hour infusion for 5 days every three weeks; cited from earlier work
[2] = Drug concentration achieved in the emulsion; type: physicochemical
[3] = cited from earlier work; for Cmax: human, in vivo
[4] = Dissolution of 17-AAG in Phospholipon in Miglyol solution without ethanol; type: physicochemical; conditions: lower melting point form crystallized from isopropanol rather than ethanol; room temperature
Text: Alternatively, 17-AAG can be brought […], adding to this the drug, e.g., 17-AAG, and mixing, e.g., by stirring and/or sonication.

[5] = adult patients, daily 1-hour infusion for 5 days every three weeks

## C=CCNC1=C2C[C@@H](C)C[C@H](OC)[C@H](O)[C@@H](C)/C=C(\C)[C@H](OC(N)=O)[C@@H](OC)/C=C\C=C(/C)C(=O)NC(=CC1=O)C2=O [Compound 17-AAG, 17-allylamino-geldanamycin]
[1]
  maximum tolerated dose (MTD): 40 mg/m^2
[2]; oil phase alone
  concentration achieved in the oil phase alone: 20000 to 30000 µg/mL
[2]; whole emulsion
  concentration achieved overall: ≤ 3000 µg/mL
[3]; [5]
  clearance (mean+/-SD): 41.0 ± 13.5 L/h
  steady-state volume (mean+/-SD): 86.6+/−34.6 L/m^2
  terminal half-life (mean+/-SD): 2.5 ± 0.5 h
[3]; 40 mg/m2
  Cmax: 1.86 µM
[3]; 56 mg/m2
  Cmax: 3.17 µM
[4]
  dissolution into the Phospholipon in Miglyol solution: more readily can be dissolved
